Biological target: T1, human SSAO T2 (Met211-Asn763), untagged (Homo sapiens, UniProt Q16853)
T1 construct: T2 (Met211-Asn763) Representing the Putative Catalytic Domain; expressed in transfected cells; cell lysate
T1 sequence (Q16853 211-763): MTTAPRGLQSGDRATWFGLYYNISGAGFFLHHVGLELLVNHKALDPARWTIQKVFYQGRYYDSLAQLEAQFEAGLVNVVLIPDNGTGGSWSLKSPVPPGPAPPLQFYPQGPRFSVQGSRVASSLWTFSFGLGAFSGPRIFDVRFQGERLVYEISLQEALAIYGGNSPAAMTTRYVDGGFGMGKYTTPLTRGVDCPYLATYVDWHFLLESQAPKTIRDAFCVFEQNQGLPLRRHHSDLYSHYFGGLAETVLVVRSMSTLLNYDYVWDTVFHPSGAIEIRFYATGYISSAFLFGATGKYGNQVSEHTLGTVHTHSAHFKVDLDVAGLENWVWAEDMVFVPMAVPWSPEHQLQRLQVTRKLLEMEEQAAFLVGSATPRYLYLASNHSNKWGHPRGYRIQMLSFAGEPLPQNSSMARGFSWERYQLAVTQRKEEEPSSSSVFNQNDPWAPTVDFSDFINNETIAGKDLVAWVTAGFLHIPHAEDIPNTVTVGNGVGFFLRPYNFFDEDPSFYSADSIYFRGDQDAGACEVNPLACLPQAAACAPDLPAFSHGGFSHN
Assay: Benzylamine stability in lysate of cells expressing T2 SSAO (untagged), LC/MS/MS
Assay type: in vitro ADME
Details: tag None
Description: 4) T2 (Met211-Asn763) Representing the Putative Catalytic Domain.
The expression constructs were prepared by cloning these PCR products into the pCDNA5-FRT-To-DEST vector (Invitrogen, Gateway System™). The forward and reverse DNA sequence of each construct was confirmed including expressed sequences and at least 100 base pairs either side of this. Stable cell lines for Flp-In CHO, Flp-In CHO T-Rex, and Flp-In HEK 293 (Invitrogen, Flp-In system™) were generated using these 6 constructs according to manufacturer's instructions. Cells were co-transfected with the regulatory vector, pOG44, and each of the pCDNA5-FRT-To-DEST constructs using Lipfectamine (Invitrogen) according to manufacturer's instructions. Thus, 18 cell lines were generated: CHO Flp-In full-length SSAO; CHO Flp-In full-length SSAO with C-terminal 6×HIS tag; CHO Flp-In T1 SSAO; CHO Flp-In T1 SSAO with C-terminal 6×HIS tag; CHO Flp-In T2 SSAO; CHO Flp-In T2 SSAO with C-terminal 6×HIS tag; CHO T-Rex Flp-In full-length SSAO; CHO T-Rex Flp-In full-length SSAO with C-terminal 6×HIS tag; CHO T-Rex Flp-In T1 SSAO; CHO T-Rex Flp-In T1 SSAO with C-terminal 6×HIS tag; CHO T-Rex Flp-In T2 SSAO; CHO Flp-In T2 SSAO with C-terminal 6×HIS tag; HEK 293 Flp-In full-length SSAO; HEK 293 Flp-In full-length SSAO with C-terminal 6×HIS tag; HEK 293 Flp-In T1 SSAO; HEK 293 Flp-In T1 SSAO with C-terminal 6×HIS tag; HEK 293 Flp-In T2 SSAO; HEK 293 Flp-In T2 SSAO with C-terminal 6×HIS tag.
Adherent CHO cells were cultured at 37° C., 5% CO2 in media containing Ham's F12, 10% fetal bovine serum, 2 mM L-glutamine, 1% Penicillin/Streptomycin, 300 μM hygromycin B. Adherent HEK 293 cells were cultured at 37° C., 5% CO2 in D-MEM (high glucose), 10% fetal bovine serum, 2 mM L-glutamine, and 200 μM hygromycin B. Stable transformants were identified by loss of zeocin resistance. Once the cells were 80% confluent, SSAO expression was induced by the addition of Tetracycline to 1 μg/mL. Following 18 hours, the cells were harvested using a trypsin treatment of 3 minutes, at room temperature. Cells were washed 3 times in phosphate buffered saline before flash freezing in liquid nitrogen.
For the preparation of cell lysate for activity testing, frozen cell pellets were resuspended in lysate buffer containing 10 mM Tris-HCl (pH 7.2), 150 mM NaCl, 1.5 mM MgCl2, 1% v/v NP-40 and incubated for 15 minutes on ice. Lysate was cleared by centrifugation 800×g for 10 minutes, 4° C. and stored in aliquots at −80° C. until use. Proteins were determined using Pierce Coomassie Protein Reagent, according to manufacturer's instructions.
For each assay run, 1 mL of cell lysate (1.5 mg/mL protein) was mixed with benzylamine to 2000 ng/mL final concentration. At each corresponding time point, […] the incubation mixture was transferred to a microcentrifuge tube (1.7 mL) and mixed with 50 μL of acetonitrile. The tubes were vortex mixed briefly to ensure complete mixing and then centrifuged at 10,000×g for 5 minutes. The supernatant was removed and 50 μL was transferred to an autosampler vial and mixed with 50 μL of water before LC/MS/MS analysis. Benzylamine remaining in the lysate was analyzed with LC/MS/MS method.
LC/MS/MS analysis was performed with a PE Sciex API 3000 mass spectrometer under the following conditions listed below and in Tables 1 and 2: […]

Structure (SMILES): NCc1ccccc1 [Benzylamine]
- Benzylamine Remaining (%) (CHO Flp-In T-Rex lysate, 0 min): 100%
- Benzylamine Remaining (%) (CHO Flp-In T-Rex lysate, 10 min): 97%
- Benzylamine Remaining (%) (CHO Flp-In T-Rex lysate, 2 h): 83%
- Benzylamine Remaining (%) (CHO Flp-In lysate, 0 min): 100%
- Benzylamine Remaining (%) (CHO Flp-In lysate, 10 min): 105%
- Benzylamine Remaining (%) (CHO Flp-In lysate, 2 h): 98%
- Benzylamine Remaining (%) (HEK293 lysate, 0 min): 100%
- Benzylamine Remaining (%) (HEK293 lysate, 10 min): 113%
- Benzylamine Remaining (%) (HEK293 lysate, 2 h): 101%

— patent US8883410B2, “Method for determining the stability of organic methyleneamines in the presence of semicarbazide-sensitive amine oxidase” (Sanofi, priority 2007, dated 2014)
